Several values for one entry are separate records, joined by “and”; a condition that tells them apart may be missing. Equal values may be shown once. Entries after “also recorded” stand apart in the source; their conditions may differ. Positions of bridges follow the written chain, without caps; N, C: chain ends. Residues, ends and D or L forms follow the SMILES beside them.
Experiments:
[1] = system: N-type calcium channels with auxiliary subunits; conditions: cited from earlier work
patients = conditions: in vivo; cited from earlier work
[2] = system: CFA-injected mice (C57 Bl6); conditions: mouse, in vivo
L-type = type: cell-based, mouse
[3] = system: P/Q-type channels (Cav2.1); type: cell-based, mouse

## CSCC[C@@H]1NC(=O)[C@H](CC(C)C)NC(=O)[C@H](CCCCN)NC(=O)[C@H](CO)NC(=O)[C@@H]2CSSC[C@@H]3NC(=O)[C@H](CO)NC(=O)CNC(=O)[C@H](CO)NC(=O)[C@H](CSSC[C@H](N)C(=O)N[C@@H](CCCCN)C(=O)N[C@@H](CO)C(=O)N[C@@H](CCCCN)C(=O)NCC(=O)N[C@@H](C)C(=O)N[C@@H](CCCCN)C(=O)N2)NC(=O)[C@H](CSSC[C@@H](C(N)=O)NC(=O)[C@H](CCCNC(=N)N)NC(=O)CNC(=O)[C@H](C(C)C)NC(=O)[C@H]([C@@H](C)O)NC(=O)CNC(=O)[C@H](CO)NC3=O)NC(=O)[C@H](CC(=O)O)NC(=O)[C@H](Cc2ccc(O)cc2)NC1=O [CVID] (H-CKSKGAKCSKLMYDCCSGSCSGTVGRC-NH2; disulfide 1-16, 8-20, 15-27)
[1]
  affinity for N-type calcium channels in presence of α2δ subunits: significantly reduces the affinity
  recovery from block in presence of α2δ subunits: decreasing recovery from CVID block
patients
  side-effect profile of irreversible ω-conotoxins: high side-effect profile
[2]
  reversal of CFA-induced incapacitance (impaired weight bearing): partially reversed impaired weight bearing; also recorded: most effective at reversing mechanical alldoynia; also recorded: most effective at reversal of pain; also recorded: reverse signs of inflammatory pain

## C[C@@H]1NC(=O)CNC(=O)[C@H](CCCCN)NC(=O)CNC(=O)[C@H](CCCCN)NC(=O)[C@@H](N)CSSC[C@@H]2NC(=O)[C@@H]3CSSC[C@@H](C(N)=O)NC(=O)[C@H](CCCNC(=N)N)NC(=O)CNC(=O)[C@H](CO)NC(=O)[C@H](CCCNC(=N)N)NC(=O)[C@H](CSSC[C@H](NC(=O)[C@H](CO)NC1=O)C(=O)N[C@@H](CCCNC(=N)N)C(=O)N[C@@H](CCCNC(=N)N)C(=O)N[C@@H]([C@@H](C)O)C(=O)N[C@@H](CO)C(=O)N[C@@H](Cc1ccc(O)cc1)C(=O)N[C@@H](CC(=O)O)C(=O)N3)NC(=O)[C@H](CO)NC(=O)CNC(=O)[C@H]([C@@H](C)O)NC2=O [CVIE]
[2]
  reversal of CFA-induced incapacitance (impaired weight bearing): partially reversed impaired weight bearing; also recorded: most effective at reversing mechanical alldoynia; also recorded: significant reversal of incapacitance; also recorded: most effective at reversal of pain; also recorded: reverse signs of inflammatory pain

## CC(C)C[C@@H]1NC(=O)[C@H](CCCNC(=N)N)NC(=O)[C@@H]2CSSC[C@@H]3NC(=O)[C@H](CO)NC(=O)[C@H](C)NC(=O)CNC(=O)[C@H](CCCCN)NC(=O)CNC(=O)[C@H](CCCCN)NC(=O)[C@@H](N)CSSC[C@H](NC(=O)[C@H](CSSC[C@@H](C(N)=O)NC(=O)[C@H](CCCNC(=N)N)NC(=O)CNC1=O)NC(=O)[C@H](CC(=O)O)NC(=O)[C@H](Cc1ccc(O)cc1)NC(=O)[C@H](CO)NC(=O)[C@H]([C@@H](C)O)NC(=O)[C@H](CCCNC(=N)N)NC(=O)[C@H](CCCNC(=N)N)NC3=O)C(=O)N[C@@H]([C@@H](C)O)C(=O)NCC(=O)N[C@@H](CO)C(=O)N2 [CVIF] (H-CKGKGASCRRTSYDCCTGSCRLGRC-NH2; disulfide 1-16, 8-20, 15-25)
[2]
  reversal of CFA-induced incapacitance (impaired weight bearing): did not produce significant reversal of incapacitance

## COCCOC(=O)C1=C(C)NC(C)=C(C(=O)OC(C)C)C1c1cccc([N+](=O)[O-])c1 (centres unmarked) [nimodipine]
L-type
  inhibition of total ICa (L-type contribution): 5% and 4%

## ω-agatoxin IVA
[3]
  inhibition of total ICa (P/Q-type contribution): approximately 30%

From paper PMC3853768 (Molecular Pain, 2013)
